From ChEMBL document CHEMBL5212743, “Selectivity Literature for EUbOPEN Chemogenomics Library wave 3” (2023)

Tests used:
[1] = target: RAF proto-oncogene serine/threonine-protein kinase (Homo sapiens) (UniProt P04049); conditions: at 1 µM
[2] = target: Histone-lysine N-methyltransferase NSD3 (Homo sapiens) (UniProt Q9BZ95); test: Selectivity interaction (Methyltransferase panel) EUB0000198b NSD3; conditions: at 10 µM
[3] = target: T1, Gamma-aminobutyric acid receptor subunit alpha-1 (Homo sapiens) (UniProt P14867); test: (§1) Selectivity interaction (GPCR panel (PDSP screen)) EUB0000334a GABRA1; conditions: at 10 µM
T1 sequence (whole entry): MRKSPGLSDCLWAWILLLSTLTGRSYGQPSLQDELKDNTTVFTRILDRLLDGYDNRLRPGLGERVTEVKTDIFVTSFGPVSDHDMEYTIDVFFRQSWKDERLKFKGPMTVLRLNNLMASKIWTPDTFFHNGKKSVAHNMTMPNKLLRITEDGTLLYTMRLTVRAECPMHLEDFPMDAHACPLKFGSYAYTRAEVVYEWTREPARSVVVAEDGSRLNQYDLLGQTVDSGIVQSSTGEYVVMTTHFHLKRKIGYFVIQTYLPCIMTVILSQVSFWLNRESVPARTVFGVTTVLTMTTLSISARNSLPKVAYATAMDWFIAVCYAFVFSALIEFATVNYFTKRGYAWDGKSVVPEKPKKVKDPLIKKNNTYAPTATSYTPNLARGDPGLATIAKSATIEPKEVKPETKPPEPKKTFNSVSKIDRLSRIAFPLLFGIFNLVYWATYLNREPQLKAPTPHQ

[4] = target: T1, Gamma-aminobutyric acid receptor subunit alpha-1 (Homo sapiens); test: as §1; conditions: at 10 µM; remark: listed apart in the source
[5] = target: Dual specificity tyrosine-phosphorylation-regulated kinase 1B (Homo sapiens, UniProt Q9Y463); test: Selectivity interaction (KinomeScan (DiscoverX)) EUB0000334a DYRK1B; conditions: at 1 µM
[6] = target: Rho-associated protein kinase 1 (Homo sapiens) (UniProt Q13464); test: Selectivity interaction (KinomeScan (DiscoverX)) EUB0000334a ROCK1; conditions: at 1 µM
[7] = target: Ribosomal protein S6 kinase alpha-6 (Homo sapiens) (UniProt Q9UK32); conditions: at 10 µM
[8] = target: Ribosomal protein S6 kinase alpha-3 (Homo sapiens) (UniProt P51812); conditions: at 10 µM
[9] = target: Serine/threonine-protein kinase N2 (Homo sapiens) (UniProt Q16513); conditions: at 10 µM
[10] = test system: Platelet-derived growth factor receptor alpha (Homo sapiens), P16234 [V561D]; test: Selectivity interaction (Kinase Profiler (Millipore)) EUB0000603a PDGFRA; conditions: at 10 µM
[11] = target: Serine/threonine-protein kinase pim-1 (Homo sapiens, UniProt P11309); test: Selectivity interaction (Kinase Profiler (Millipore)) EUB0000603a PIM1; conditions: at 10 µM
[12] = target: Protein arginine N-methyltransferase 7 (Homo sapiens) (UniProt Q9NVM4); test: Selectivity interaction (Methyltransferase panel) EUB0000226b PRMT7; conditions: at 10 µM

Chain of Ribosomal protein S6 kinase alpha-3 (Homo sapiens) (P51812 whole entry): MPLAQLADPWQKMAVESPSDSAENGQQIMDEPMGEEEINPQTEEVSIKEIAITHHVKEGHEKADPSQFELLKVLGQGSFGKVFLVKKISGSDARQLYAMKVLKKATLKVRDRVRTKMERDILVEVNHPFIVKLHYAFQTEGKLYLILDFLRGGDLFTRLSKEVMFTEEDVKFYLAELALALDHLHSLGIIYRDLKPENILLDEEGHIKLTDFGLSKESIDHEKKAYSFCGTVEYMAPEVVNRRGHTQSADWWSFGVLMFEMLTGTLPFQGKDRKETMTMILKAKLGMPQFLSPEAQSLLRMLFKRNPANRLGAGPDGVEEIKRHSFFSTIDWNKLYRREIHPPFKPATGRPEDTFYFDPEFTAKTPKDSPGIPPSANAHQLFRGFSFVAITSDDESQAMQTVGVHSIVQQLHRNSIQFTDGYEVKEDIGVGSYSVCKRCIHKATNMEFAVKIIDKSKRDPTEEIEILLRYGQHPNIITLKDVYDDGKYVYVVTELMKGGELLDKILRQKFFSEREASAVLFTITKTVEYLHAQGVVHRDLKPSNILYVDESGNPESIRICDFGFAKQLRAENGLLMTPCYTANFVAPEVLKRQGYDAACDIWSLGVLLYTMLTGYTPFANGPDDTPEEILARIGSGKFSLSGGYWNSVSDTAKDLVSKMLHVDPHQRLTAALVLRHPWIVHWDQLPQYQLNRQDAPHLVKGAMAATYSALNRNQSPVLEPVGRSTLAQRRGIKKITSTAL
Chain of Platelet-derived growth factor receptor alpha (Homo sapiens), P16234 [V561D] (P16234 whole entry V561D): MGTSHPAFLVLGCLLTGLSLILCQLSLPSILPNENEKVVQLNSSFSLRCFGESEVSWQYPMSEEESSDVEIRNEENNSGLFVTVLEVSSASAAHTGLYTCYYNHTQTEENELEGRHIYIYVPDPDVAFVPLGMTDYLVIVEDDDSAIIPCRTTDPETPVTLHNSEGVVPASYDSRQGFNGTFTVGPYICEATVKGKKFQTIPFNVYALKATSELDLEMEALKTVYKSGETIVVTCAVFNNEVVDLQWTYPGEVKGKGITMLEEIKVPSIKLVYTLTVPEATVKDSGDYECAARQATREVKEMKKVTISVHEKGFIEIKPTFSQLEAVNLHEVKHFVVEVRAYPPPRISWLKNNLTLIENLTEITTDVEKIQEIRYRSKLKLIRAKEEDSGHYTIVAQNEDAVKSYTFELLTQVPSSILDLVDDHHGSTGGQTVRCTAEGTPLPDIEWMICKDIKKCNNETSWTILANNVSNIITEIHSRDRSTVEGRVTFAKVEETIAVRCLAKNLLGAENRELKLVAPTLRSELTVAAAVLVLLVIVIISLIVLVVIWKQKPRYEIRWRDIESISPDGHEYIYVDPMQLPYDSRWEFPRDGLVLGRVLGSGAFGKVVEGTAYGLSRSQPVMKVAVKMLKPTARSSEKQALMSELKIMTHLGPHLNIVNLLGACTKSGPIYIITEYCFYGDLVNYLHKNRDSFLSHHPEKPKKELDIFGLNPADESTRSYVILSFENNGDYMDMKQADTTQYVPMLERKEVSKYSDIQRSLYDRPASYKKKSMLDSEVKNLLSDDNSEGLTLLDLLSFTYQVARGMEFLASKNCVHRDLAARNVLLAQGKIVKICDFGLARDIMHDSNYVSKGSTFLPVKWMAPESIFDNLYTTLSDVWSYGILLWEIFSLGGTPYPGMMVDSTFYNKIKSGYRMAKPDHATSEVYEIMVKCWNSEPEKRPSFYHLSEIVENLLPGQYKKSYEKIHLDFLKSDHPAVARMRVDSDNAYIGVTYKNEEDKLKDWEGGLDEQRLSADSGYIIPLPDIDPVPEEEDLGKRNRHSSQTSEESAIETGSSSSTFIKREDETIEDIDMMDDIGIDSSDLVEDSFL
Chain of Serine/threonine-protein kinase N2 (Homo sapiens) (Q16513 whole entry, looked up): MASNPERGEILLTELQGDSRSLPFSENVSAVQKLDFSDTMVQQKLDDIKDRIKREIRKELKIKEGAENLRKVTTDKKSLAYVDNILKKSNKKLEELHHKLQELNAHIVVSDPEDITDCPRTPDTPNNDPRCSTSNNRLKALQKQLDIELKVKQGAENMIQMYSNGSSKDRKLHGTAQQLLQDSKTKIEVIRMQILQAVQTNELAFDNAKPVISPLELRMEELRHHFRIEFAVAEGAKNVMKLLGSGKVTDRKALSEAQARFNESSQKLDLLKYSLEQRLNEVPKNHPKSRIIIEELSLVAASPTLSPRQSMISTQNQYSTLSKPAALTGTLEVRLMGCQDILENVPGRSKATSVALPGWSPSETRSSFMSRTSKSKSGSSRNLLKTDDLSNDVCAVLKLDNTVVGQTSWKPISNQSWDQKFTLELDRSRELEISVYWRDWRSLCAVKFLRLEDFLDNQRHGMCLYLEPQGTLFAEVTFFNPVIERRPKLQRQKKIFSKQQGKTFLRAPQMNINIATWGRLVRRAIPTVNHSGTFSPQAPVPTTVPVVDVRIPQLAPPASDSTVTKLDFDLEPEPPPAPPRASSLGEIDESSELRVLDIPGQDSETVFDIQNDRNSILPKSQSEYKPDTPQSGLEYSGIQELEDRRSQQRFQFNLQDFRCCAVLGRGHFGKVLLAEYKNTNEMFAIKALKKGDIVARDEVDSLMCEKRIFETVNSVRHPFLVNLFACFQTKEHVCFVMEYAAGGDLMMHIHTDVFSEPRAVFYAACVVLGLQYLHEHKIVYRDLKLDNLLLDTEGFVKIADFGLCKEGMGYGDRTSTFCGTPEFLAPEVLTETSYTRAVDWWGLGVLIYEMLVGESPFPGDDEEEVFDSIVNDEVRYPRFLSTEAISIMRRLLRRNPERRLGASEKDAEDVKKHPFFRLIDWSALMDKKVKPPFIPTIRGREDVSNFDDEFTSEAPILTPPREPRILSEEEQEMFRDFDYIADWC
Chain of Histone-lysine N-methyltransferase NSD3 (Homo sapiens) (Q9BZ95 whole entry): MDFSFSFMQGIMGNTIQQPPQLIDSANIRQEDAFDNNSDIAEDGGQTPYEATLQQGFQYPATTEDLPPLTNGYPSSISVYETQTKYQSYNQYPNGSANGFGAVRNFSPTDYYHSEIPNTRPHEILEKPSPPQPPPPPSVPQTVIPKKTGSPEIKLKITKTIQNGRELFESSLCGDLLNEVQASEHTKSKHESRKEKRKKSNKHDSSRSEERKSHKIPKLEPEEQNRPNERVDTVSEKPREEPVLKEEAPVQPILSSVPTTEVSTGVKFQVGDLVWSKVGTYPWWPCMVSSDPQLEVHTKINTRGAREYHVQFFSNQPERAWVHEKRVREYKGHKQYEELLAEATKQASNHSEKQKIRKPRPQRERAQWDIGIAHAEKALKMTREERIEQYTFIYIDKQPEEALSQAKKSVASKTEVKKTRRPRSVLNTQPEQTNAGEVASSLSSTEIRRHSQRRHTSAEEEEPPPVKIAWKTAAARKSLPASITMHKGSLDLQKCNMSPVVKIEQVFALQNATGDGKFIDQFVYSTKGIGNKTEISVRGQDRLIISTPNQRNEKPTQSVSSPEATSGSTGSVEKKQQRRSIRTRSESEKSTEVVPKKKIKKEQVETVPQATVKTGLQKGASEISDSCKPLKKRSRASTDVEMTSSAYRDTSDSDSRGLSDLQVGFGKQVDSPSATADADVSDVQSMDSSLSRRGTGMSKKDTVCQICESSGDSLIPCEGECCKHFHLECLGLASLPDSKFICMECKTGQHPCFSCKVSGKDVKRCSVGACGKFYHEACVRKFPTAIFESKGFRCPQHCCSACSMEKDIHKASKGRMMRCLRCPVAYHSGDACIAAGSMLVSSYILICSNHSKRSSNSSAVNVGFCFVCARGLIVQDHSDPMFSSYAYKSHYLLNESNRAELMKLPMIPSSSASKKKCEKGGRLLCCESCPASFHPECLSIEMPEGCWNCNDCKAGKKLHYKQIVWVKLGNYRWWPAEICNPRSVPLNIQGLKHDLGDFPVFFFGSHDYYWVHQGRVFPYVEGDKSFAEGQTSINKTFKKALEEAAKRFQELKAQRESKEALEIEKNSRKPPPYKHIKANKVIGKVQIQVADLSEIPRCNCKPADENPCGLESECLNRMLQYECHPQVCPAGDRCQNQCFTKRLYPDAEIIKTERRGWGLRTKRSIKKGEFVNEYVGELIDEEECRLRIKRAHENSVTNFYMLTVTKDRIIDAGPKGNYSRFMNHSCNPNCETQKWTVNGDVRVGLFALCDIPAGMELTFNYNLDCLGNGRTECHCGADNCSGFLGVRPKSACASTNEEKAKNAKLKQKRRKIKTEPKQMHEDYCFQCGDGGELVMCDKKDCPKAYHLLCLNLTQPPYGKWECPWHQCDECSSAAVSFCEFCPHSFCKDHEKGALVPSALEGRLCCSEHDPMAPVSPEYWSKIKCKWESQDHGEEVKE
Chain of Dual specificity tyrosine-phosphorylation-regulated kinase 1B (Q9Y463 whole entry, looked up): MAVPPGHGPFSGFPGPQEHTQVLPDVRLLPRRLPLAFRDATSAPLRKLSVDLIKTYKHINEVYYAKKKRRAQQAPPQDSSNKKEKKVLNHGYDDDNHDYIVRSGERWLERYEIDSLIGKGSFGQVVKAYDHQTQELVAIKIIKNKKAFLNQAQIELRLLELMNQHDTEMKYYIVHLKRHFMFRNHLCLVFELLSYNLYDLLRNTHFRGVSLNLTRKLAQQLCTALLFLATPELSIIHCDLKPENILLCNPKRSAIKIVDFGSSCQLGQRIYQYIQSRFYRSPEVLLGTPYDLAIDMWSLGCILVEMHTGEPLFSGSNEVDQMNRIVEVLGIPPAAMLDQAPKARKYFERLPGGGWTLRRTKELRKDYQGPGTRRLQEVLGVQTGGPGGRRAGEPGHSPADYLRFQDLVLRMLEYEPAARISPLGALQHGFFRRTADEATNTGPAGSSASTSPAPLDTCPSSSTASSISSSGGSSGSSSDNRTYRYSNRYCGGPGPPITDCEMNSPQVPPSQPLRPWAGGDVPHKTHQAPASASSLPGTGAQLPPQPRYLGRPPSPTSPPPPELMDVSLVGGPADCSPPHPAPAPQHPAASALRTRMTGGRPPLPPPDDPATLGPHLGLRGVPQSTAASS

OCCn1cc(-c2ccc3c(c2)CCC3=NO)c(-c2ccncc2)n1
% of control [1]: 8%

O=C(NC[C@H](O)CN1CCc2ccccc2C1)c1ccnc(NC2CCC2)c1
% of inhibition [2]: 75%

CN([C@@H]1CCc2c(CC(=O)O)c3cc(S(C)(=O)=O)ccc3n2C1)S(=O)(=O)c1ccc(F)cc1
inhibition [3]: 45%
inhibition [4]: 41%
% of control [5]: 36%
% of control [6]: 6%

C[C@@H](Oc1cc(-n2cnc3ccc(CN4CCN(C)CC4)cc32)sc1C(N)=O)c1ccccc1C(F)(F)F
% of inhibition [7]: 92%
% of inhibition [8]: 92%
% of inhibition [9]: 92%
% of inhibition [10]: 96%
% of inhibition [11]: 90%

Nc1ncnc2c1ccn2[C@@H]1O[C@H]([C@H](O)c2ccccc2)[C@@H](O)[C@H]1O
% activity remaining [12]: 75%
